Read-outs that look alike come from different tables or passages of the source.
Experiments:
dogs = test: 30-week oral administration toxicity, dogs; type: in vivo
Description: (§1) 30-week oral administration of (±)-COMPOUND to rats and dogs indicate no toxicity at dosages up to 272 mg/kg/day in rats and up to 10 mg/kg/day in dogs. (±)-COMPOUND is found to have no embryolethal or teratogenic actions in the rat at dosages up to 300 mg/kg and in the rabbit at dosages up to 30 mg/kg.

Guinea-pigs [1] = test: Reversal of bombesin-induced bronchospasm in vivo; conditions: i.v. at the height of bronchospasm induced by bombesin (ca. 500 ng/kg); one series of tests; of the order of
Description: (§2) Guinea pigs are anaesthetised with pentobarbital (30 mg/kg i.p.) and phenobarbital (100 mg/kg i.p.) and ventilated via a tracheal cannula (10 ml/kg, lHz). Ventilation is monitored either by a pressure transducer measuring air-flow (Konzett-Rossler method), or by a Fleisch flow transducer in line with the inspiratory circuit. When making measurements of flow, coincident pressure changes in the thorax are monitored directly via an intrathoracic trochar, permitting display of differential pressure relative to the trachea. From this information resistance and compliance are calculated at each inspiration. Test substance is, administered via an indwelling cannula within a jugular vein. Blood pressure is monitored at the carotid artery. Test substance is administered immediately before injection of a bronchoconstrictor agent - PAF (56 ng/kg), acetylcholine (32 µg/kg), histamine(10 µg/kg), serotonin (10 µg/kg), substance P ([…]) or leukotriene C4 (5 µg/kg).
Guinea-pigs are prepared for measurement of resistance and compliance as under lb^l above. Intravenous injection of bombes in (ca. 500 ng/kg) as a bolus, induces increased airways resistance which is sustained over a period of several minutes. Capacity of test-substance to reverse response when administered i.v. at the height of bombesin-induced bronchospasm serves as a measure of efficacy in reversing established bronchospasm.

[2] = test system: subjects exhibiting heart insufficiency; test: Tolerability and safety in subjects exhibiting heart insufficiency; type: in vivo, humans
healthy trial volunteers = test: Tolerability and safety in healthy trial volunteers; type: in vivo, humans
[3] = test system: guinea-pig peritoneal cavity; test: Influence on eosinophil accumulation in the peritoneal cavity in vivo
Description: Effect of test-substance is conveniently determined by measurement of influence on PAF-induced eosinophil accumulation in the guinea-pig peritoneal cavity in vivo. In the guinea-pig, there is a substantial (up to 40%) resident population of eosinophils in the peritoneal cavity and eosinophil accumulation in the peritoneal cavity relative to control animals ca. 24 - 48 hrs. following injection of PAF i.p. at dosages of ca. 10µg/kg.
To esablish eosinophil accumulation, test animals receive 10µg/kg PAF i.p., 2 days prior to sacrifice. Smears from the peritoneal cavity are prepared employing Leishman's Stain after fixation with 95% methanol. At least 500 white cells are differentiated for each estimation. Test substance is administered s.c. via a minipump for four days prior to sacrifice.

Guinea pigs [4] = test: Suppression of airways hyperreactivity, sensitised animals (immune complexes); type: in vivo
Source text: Guinea pigs are anaesthetised and airways resistance and compliance recorded as described under example lb^l above. […] Platelets are isolated and labelled with ^lllindium prior to intravenous infusion. Platelet accumulation is monitored by external crystal detectors [c.f. Morley et al. […] Allergic reaction is initiated by i.v. injection of preformed immune complexes (bovine y-globulin/ anti-bovine y-globulin), using a dose that is scarcely sufficient to induce bronchospasm at the first injection. By repeating the dose at regular (10 min.) intervals, bronchospasm of progressively increasing amplitude is evidenced. This effect is paralleled by an incremental retention of platelets within the airway vasculature. Following the last dose of immune complexes, the dose-effect relationship to histamine is re-defined. In animals so treated, induction of airways hyperreactivity is consistently observed.

Conscious guinea-pigs = test: Inhibition of acetylcholine-mist bronchoconstriction following pulmonary administration; type: in vivo; conditions: inhalation of mist 10 mins. prior to 0.3% mist of acetylcholine
Description: Conscious guinea-pigs are subjected to inhalation of COMPOUND or placebo (vehicle) 10 mins. prior to explosure to a 0.3% mist of acetylcholine. COMPOUND is administered as a mist generated from COMPOUND in aqueous solution at concentrations of from 1 mg/ml to 0.001 mg/ml, using a jet nebuliser. Prolongation of time prior to collapse in treated groups as compared with placebo groups is taken as a measure of bronchodilator efficacy.

rabbit = test: Embryolethal or teratogenic actions, rabbit; type: in vivo
Description: as §1

Guinea-pigs [5] = test: Suppression of airways hyperreactivity, PAF-treated animals; type: in vivo
Description: Guinea-pigs are anaesthetised and prepared for recording of lung function as described under example lb^l above. Intravenous injection of low dose bombesin (240 ng/kg) establishes airways sensitivity to spasmogens. Following infusion of PAF over lhr. […] Induction of airways hyperreactivity by PAF is a platelet-dependent phenomenon and development of. airways hyperreactivity in this model in paralleled by observed accumulation of platelets within the thorax.

[6] = test system: guinea-pig tracheal ring preparations; test: Bronchospasmolytic activity in vitro, isolated guinea-pig trachea; type: cell-based; conditions: for IC50: guinea-pig tracheal rings, one series of tests
Description: The trachea is excised from freshly sacrificed guinea-pigs and transected in the transverse plane to give rings of tissue of ca. 2 mm. Individual rings are mounted vertically on stainless steel supports, one of which is fixed at the base of an organ bath, the other being attached to a tension transducer. The rings are bathed in modified Tyrode solution at 37°C and gassed with O2/CO2 (95:5, v/v). Rings prepared in this manner, preloaded with 1 g, generate spontaneous tone and, after a period of equilibration, relax on addition of spasmolytic drugs. Tension can be enhanced by addition of carbachol (10-^6M) or histamine (10-^4M). To ascertain spasmolytic activity, test substances are dissolved in physiological saline and added in increasing quantities to the organ bath at 5 min. intervals to provide a cumulative concentration-effect curve.

rat = test: Embryolethal or teratogenic actions, rat; type: in vivo
Description: as §1

rats = test: 30-week oral administration toxicity, rats; type: in vivo
Description: as §1

Guinea pigs [7] = test: Inhibition of bronchospasm in vivo (Konzett-Rossler preparation); conditions: dosages of the order of 1 mg/kg via jugular vein immediately before PAF, acetylcholine, histamine, serotonin, substance P or leukotriene C4
Description: as §2

[8] = intravenous dosages of up to 100 mg by perfusion over 10 mins.

COc1cc2c(cc1OC)[C@@H]1CN(C)CC[C@@H]1N=C2c1ccc(NC(C)=O)cc1 (racemic) [(±)-COMPOUND, cis-6-(4-acetanilido)-8,9-dimethoxy-2-methyl-1,2,3,4,4a,10b-hexahydrobenzo[c][1,6]naphthyridin]
dosages with no toxicity (dogs): up to 10 mg/kg/day | ID50 values, abrogation of bombesin-induced bronchospasm (Guinea-pigs [1]): 0.08 to 0.48 mg/kg | arterial pressure [2, 8]: light fall | heart frequency [2, 8]: increase | intravenous dosages well tolerated ([2]; perfusion over 10 mins., subjects exhibiting heart insufficiency): up to 100 mg | systolic blood-pressure ([2]; placebo controlled trials, after 60 mins.): light increase | heart frequency ([2]; placebo controlled trials, oral): no relevant change | oral dosages with no significant side effects, well tolerated ([2]; subjects exhibiting heart insufficiency, oral): up to 600 mg | tolerability (healthy trial volunteers; 600 mg once daily for 3 days (6 subjects)): well tolerated | single oral dosages with no occurrence of side effects or relevant changes in laboratory parameters (healthy trial volunteers; healthy trial volunteers (27 subjects)): up to 800 mg | PAF-induced eosinophil accumulation ([3]; of the order of 2 mg/kg/day s.c. via minipump for four days, animals receiving 10µg/kg PAF i.p.): inhibition of eosinophil accumulation | resident eosinophil population ([3]; of the order of 10 mg/kg/day s.c. via minipump for four days, non-PAF-treated animals, vs untreated controls): decrease | dosage giving suppression of induced airways resistance (Guinea pigs [4]; advance administration i.v., ca., compared with untreated controls): ≥ 1 mg/kg | effective dose, inhibition of airways hyperreactivity (Guinea pigs [4]; one test series): 0.35 mg/kg | amount introduced into the exposure chamber giving detectable protection against bronchospasm (Conscious guinea-pigs): ≥ 2 µg | dosages with no embryolethal or teratogenic actions (rabbit): up to 30 mg/kg | thoracic platelet accumulation in response to PAF (Guinea-pigs [5]; 1 mg/kg bolus and infusion at 1 mg/kg/hr i.v.): inhibited | dosage giving suppression of airways hyperreactivity induction (Guinea-pigs [5]; advance administration i.v., ca., PAF infusion 600 ng/kg, bombesin 240 ng/kg): ≥ 0.1 mg/kg | ID50, suppression of airways hyperreactivity induction (Guinea-pigs [5]; i.v., one series of tests, of the order of): ~1 mg/kg | relaxant action on tracheal rings from animals desensitised to β2-agonist therapy ([6]; animals with prolonged exposure to high-dose isoprenaline in vivo): not influenced | IC50 ([6]; carbachol (10-^6M), read-out: IC50 values for inhibition of contraction due to carbachol): 5.8 µM | IC50 ([6]; histamine (10-^4M), read-out: IC50 values for inhibition of contraction due to histamine): 1.7 µM | IC50 ([6]; spontaneous tone, read-out: IC50 values for inhibition of spontaneous tone): 3.2 µM | relaxant action in the presence of propanolol ([6]; propanolol (1 uM)): undiminished | dosages with no embryolethal or teratogenic actions (rat): up to 300 mg/kg | dosages with no toxicity (rats): up to 272 mg/kg/day | constrictor response to bronchoconstrictor agents (Guinea pigs [7]): strongly inhibits

Source: patent publication EP0247971A2, “Novel pharmaceutical compositions comprising and use of cis-6-(4-acetanilido)-8,9-dimethoxy-2-methyl-1,2,3,4,4a,10b-hexahydrobenzo[c][1,6]naphthyridin” (SANDOZ AG, priority 1986, dated 1987)
